Test results from ChEMBL document CHEMBL3758136, “Design, synthesis and in vitro activity of phidianidine B derivatives as novel PTP1B inhibitors with specific selectivity” (Bioorg Med Chem Lett, 2016).

Key:
[1] = molecular target: T1, Tyrosine-protein phosphatase non-receptor type 11 (Homo sapiens, UniProt Q06124); assay: Inhibition of human SHP2 as hydrolysis of pNPP after 2 mins
T1 sequence (Q06124 whole entry): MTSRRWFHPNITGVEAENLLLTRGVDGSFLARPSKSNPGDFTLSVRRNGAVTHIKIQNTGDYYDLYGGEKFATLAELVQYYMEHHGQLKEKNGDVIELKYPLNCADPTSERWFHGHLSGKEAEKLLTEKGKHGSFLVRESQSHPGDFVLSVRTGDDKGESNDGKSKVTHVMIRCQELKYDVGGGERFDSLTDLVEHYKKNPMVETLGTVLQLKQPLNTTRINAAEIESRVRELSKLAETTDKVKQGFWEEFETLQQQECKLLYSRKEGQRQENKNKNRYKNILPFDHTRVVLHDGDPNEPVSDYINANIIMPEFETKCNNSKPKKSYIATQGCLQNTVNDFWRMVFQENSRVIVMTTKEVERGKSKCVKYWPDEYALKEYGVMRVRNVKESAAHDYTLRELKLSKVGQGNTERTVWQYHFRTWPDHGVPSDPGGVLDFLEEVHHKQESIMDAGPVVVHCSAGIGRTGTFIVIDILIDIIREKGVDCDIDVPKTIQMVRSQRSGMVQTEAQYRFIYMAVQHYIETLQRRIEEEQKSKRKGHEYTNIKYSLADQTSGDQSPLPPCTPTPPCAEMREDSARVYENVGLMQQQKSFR

[2] = molecular target: T2, Tyrosine-protein phosphatase non-receptor type 1 (Homo sapiens, UniProt P18031); assay: Inhibition of recombinant human PTP1B catalytic domain assessed as hydrolysis of pNPP after 2 mins
T2 sequence (P18031 whole entry): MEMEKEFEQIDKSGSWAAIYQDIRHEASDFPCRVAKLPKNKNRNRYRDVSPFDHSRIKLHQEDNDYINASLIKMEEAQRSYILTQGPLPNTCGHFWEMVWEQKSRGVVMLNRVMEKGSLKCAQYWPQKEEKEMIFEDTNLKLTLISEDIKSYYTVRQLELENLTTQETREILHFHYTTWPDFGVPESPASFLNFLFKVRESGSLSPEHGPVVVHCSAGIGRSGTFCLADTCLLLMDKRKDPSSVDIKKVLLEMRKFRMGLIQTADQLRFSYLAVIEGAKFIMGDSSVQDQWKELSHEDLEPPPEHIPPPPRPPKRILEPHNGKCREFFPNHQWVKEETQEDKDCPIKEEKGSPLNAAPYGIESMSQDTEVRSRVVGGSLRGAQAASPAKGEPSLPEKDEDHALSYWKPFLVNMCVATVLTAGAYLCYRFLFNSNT

[3] = molecular target: Receptor-type tyrosine-protein phosphatase F (Homo sapiens, UniProt P10586); assay: Inhibition of human LAR as hydrolysis of pNPP after 2 mins
Receptor-type tyrosine-protein phosphatase F, sequence (P10586 whole entry): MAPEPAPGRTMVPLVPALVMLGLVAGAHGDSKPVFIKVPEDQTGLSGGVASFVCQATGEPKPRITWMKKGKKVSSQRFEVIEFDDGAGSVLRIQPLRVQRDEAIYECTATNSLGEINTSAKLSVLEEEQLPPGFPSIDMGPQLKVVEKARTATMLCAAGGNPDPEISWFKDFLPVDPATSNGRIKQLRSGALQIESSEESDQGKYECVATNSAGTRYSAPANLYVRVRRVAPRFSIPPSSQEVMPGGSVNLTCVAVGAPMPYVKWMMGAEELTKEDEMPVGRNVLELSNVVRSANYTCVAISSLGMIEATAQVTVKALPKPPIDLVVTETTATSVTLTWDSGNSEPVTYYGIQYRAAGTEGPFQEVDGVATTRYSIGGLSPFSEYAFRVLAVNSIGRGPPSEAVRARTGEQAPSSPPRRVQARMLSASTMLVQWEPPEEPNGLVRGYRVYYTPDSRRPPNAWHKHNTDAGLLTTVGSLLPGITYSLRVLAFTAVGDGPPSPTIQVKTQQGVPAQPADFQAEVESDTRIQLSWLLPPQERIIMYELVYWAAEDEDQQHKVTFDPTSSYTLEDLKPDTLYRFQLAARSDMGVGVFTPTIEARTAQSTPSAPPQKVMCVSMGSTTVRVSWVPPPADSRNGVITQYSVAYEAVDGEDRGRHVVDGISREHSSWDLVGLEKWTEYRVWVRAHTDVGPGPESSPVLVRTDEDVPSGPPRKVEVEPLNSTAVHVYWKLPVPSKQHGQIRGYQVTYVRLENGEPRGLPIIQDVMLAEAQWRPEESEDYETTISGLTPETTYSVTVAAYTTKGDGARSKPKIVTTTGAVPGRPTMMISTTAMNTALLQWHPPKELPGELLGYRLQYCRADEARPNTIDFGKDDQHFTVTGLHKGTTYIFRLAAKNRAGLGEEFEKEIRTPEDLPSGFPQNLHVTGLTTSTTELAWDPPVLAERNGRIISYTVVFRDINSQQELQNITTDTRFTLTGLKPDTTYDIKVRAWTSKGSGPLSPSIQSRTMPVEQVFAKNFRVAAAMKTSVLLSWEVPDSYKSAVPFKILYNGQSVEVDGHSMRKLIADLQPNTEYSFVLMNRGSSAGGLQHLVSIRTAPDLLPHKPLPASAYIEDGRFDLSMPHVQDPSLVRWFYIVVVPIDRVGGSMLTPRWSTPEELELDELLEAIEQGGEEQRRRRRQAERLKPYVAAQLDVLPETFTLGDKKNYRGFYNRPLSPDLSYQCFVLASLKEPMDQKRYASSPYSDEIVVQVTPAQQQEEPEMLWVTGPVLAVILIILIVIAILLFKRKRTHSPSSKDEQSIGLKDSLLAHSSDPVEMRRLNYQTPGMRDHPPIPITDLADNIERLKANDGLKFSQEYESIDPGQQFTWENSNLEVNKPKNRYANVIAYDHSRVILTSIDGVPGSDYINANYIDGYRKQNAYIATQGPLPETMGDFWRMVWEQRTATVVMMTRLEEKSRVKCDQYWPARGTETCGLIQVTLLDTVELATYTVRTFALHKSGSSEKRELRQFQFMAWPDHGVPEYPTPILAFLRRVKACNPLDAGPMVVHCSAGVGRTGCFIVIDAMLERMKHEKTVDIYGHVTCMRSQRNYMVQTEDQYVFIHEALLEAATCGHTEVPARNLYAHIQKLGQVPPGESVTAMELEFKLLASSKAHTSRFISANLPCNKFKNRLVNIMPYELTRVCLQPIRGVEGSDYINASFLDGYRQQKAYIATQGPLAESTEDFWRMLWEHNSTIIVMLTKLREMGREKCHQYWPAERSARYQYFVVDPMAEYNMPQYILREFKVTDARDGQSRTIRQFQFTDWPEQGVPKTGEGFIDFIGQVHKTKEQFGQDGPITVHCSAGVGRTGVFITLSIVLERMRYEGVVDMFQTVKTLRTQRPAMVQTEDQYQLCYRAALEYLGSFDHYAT

[4] = molecular target: Tyrosine-protein phosphatase non-receptor type 6 (Homo sapiens, UniProt P29350); assay: Inhibition of human SHP1 as hydrolysis of pNPP after 2 mins
Tyrosine-protein phosphatase non-receptor type 6, sequence (P29350 whole entry): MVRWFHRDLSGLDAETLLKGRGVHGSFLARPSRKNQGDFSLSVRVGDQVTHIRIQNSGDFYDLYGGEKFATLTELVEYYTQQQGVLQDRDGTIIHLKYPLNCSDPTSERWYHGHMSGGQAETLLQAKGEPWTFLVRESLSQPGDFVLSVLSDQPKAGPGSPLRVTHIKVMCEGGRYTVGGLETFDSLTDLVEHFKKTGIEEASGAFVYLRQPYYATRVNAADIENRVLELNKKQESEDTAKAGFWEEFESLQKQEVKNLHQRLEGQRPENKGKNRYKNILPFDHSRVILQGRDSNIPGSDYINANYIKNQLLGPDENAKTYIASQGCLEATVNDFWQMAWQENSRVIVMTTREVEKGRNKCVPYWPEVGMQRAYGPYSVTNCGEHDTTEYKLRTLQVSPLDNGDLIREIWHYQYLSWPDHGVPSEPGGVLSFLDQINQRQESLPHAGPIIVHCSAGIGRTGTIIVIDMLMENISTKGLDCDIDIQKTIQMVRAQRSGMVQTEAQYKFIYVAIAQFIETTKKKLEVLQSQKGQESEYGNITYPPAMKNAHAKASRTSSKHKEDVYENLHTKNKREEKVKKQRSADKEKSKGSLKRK

[5] = molecular target: T3, Tyrosine-protein phosphatase non-receptor type 2 (Homo sapiens, UniProt P17706); assay: Inhibition of human TCPTP as hydrolysis of pNPP after 2 mins
T3 sequence (P17706 whole entry): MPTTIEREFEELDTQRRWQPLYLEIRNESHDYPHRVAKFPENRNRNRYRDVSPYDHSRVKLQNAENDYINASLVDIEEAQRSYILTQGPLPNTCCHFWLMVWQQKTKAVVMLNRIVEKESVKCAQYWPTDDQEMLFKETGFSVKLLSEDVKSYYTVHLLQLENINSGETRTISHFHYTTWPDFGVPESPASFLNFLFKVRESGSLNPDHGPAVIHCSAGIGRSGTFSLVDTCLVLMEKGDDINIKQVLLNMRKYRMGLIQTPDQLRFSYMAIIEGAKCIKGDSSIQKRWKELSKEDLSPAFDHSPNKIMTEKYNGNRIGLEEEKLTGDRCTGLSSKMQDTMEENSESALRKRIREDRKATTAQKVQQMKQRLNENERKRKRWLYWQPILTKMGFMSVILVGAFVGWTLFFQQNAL

Nc1ccc(-c2ccc(-c3noc(Cc4c[nH]c5ccccc45)n3)s2)cc1
IC50 [1]: > 120 µM | IC50 [2]: > 120 µM | IC50 [3]: > 120 µM | IC50 [4]: > 120 µM | IC50 [5]: > 120 µM

Nc1ccc(-c2cccc(-c3noc(Cc4c[nH]c5ccccc45)n3)c2)cc1
IC50 [1]: > 120 µM | IC50 [2]: > 120 µM | IC50 [3]: > 120 µM | IC50 [4]: > 120 µM | IC50 [5]: > 120 µM

Brc1ccc(-c2noc(Cc3c[nH]c4ccccc34)n2)s1
IC50 [1]: > 120 µM | IC50 [2]: 14.1 µM | IC50 [3]: > 120 µM | IC50 [4]: > 120 µM | IC50 [5]: > 120 µM

Cc1ccccc1-c1ccc(-c2noc(Cc3c[nH]c4ccccc34)n2)s1
IC50 [1]: > 120 µM | IC50 [2]: 16.8 µM | IC50 [3]: > 120 µM | IC50 [4]: > 120 µM | IC50 [5]: > 120 µM

CCCCc1ccc(-c2ccc(-c3noc(Cc4c[nH]c5ccccc45)n3)s2)cc1
IC50 [1]: > 120 µM | IC50 [2]: 8.96 µM | IC50 [3]: > 120 µM | IC50 [4]: > 120 µM | IC50 [5]: > 120 µM

Brc1cccc(-c2noc(Cc3c[nH]c4ccccc34)n2)c1
IC50 [1]: > 120 µM | IC50 [2]: 19.7 µM | IC50 [3]: > 120 µM | IC50 [4]: > 120 µM | IC50 [5]: > 120 µM

CCCc1ccc(-c2ccc(-c3noc(Cc4c[nH]c5ccccc45)n3)s2)cc1
IC50 [1]: > 120 µM | IC50 [2]: 12.5 µM | IC50 [3]: > 120 µM | IC50 [4]: > 120 µM | IC50 [5]: > 120 µM

CCCCc1ccc(-c2cccc(-c3noc(Cc4c[nH]c5ccccc45)n3)n2)cc1
IC50 [1]: > 120 µM | IC50 [2]: 9.66 µM | IC50 [3]: > 120 µM | IC50 [4]: > 120 µM | IC50 [5]: > 120 µM

CCOc1ccc(-c2cccc(-c3noc(Cc4c[nH]c5ccccc45)n3)c2)cc1
IC50 [1]: > 120 µM | IC50 [2]: 15.9 µM | IC50 [3]: > 120 µM | IC50 [4]: > 120 µM | IC50 [5]: > 120 µM

COC(=O)CCCOc1ccc(-c2ccc(-c3noc(Cc4c[nH]c5ccccc45)n3)s2)cc1
IC50 [1]: > 120 µM | IC50 [2]: > 120 µM | IC50 [3]: > 120 µM | IC50 [4]: > 120 µM | IC50 [5]: > 120 µM

CCc1ccc(-c2ccc(-c3noc(Cc4c[nH]c5ccccc45)n3)s2)cc1
IC50 [1]: > 120 µM | IC50 [2]: 13.1 µM | IC50 [3]: > 120 µM | IC50 [4]: > 120 µM | IC50 [5]: > 120 µM

CCCOc1ccc(-c2cccc(-c3noc(Cc4c[nH]c5ccccc45)n3)c2)cc1
IC50 [1]: > 120 µM | IC50 [2]: 18.4 µM | IC50 [3]: > 120 µM | IC50 [4]: > 120 µM | IC50 [5]: > 120 µM

Cc1ccccc1-c1cccc(-c2noc(Cc3c[nH]c4ccccc34)n2)c1
IC50 [1]: > 120 µM | IC50 [2]: 24.4 µM | IC50 [3]: > 120 µM | IC50 [4]: > 120 µM | IC50 [5]: > 120 µM

Cc1cccc(-c2ccc(-c3noc(Cc4c[nH]c5ccccc45)n3)s2)c1
IC50 [1]: > 120 µM | IC50 [2]: > 120 µM | IC50 [3]: > 120 µM | IC50 [4]: > 120 µM | IC50 [5]: > 120 µM

CCOc1ccc(-c2cccc(-c3noc(Cc4c[nH]c5ccccc45)n3)n2)cc1
IC50 [1]: > 120 µM | IC50 [2]: 31.5 µM | IC50 [3]: > 120 µM | IC50 [4]: > 120 µM | IC50 [5]: > 120 µM

Cc1cccc(-c2cccc(-c3noc(Cc4c[nH]c5ccccc45)n3)c2)c1
IC50 [1]: > 120 µM | IC50 [2]: 15.8 µM | IC50 [3]: > 120 µM | IC50 [4]: > 120 µM | IC50 [5]: > 120 µM

CCCOc1ccc(-c2cccc(-c3noc(Cc4c[nH]c5ccccc45)n3)n2)cc1
IC50 [1]: > 120 µM | IC50 [2]: 9.66 µM | IC50 [3]: > 120 µM | IC50 [4]: > 120 µM | IC50 [5]: > 120 µM

CCOc1ccc(-c2ccc(-c3noc(Cc4c[nH]c5ccccc45)n3)s2)cc1
IC50 [1]: > 120 µM | IC50 [2]: 17.3 µM | IC50 [3]: > 120 µM | IC50 [4]: > 120 µM | IC50 [5]: > 120 µM

Brc1cccc(-c2noc(Cc3c[nH]c4ccccc34)n2)n1
IC50 [1]: > 120 µM | IC50 [2]: > 120 µM | IC50 [3]: > 120 µM | IC50 [4]: > 120 µM | IC50 [5]: > 120 µM

Oc1ccc(-c2cccc(-c3noc(Cc4c[nH]c5ccccc45)n3)c2)cc1
IC50 [1]: > 120 µM | IC50 [2]: 21.9 µM | IC50 [3]: > 120 µM | IC50 [4]: > 120 µM | IC50 [5]: > 120 µM

CCCOc1ccc(-c2ccc(-c3noc(Cc4c[nH]c5ccccc45)n3)s2)cc1
IC50 [1]: > 120 µM | IC50 [2]: 13.7 µM | IC50 [3]: > 120 µM | IC50 [4]: > 120 µM | IC50 [5]: > 120 µM

Cc1cccc(-c2cccc(-c3noc(Cc4c[nH]c5ccccc45)n3)n2)c1
IC50 [1]: > 120 µM | IC50 [2]: 21.7 µM | IC50 [3]: > 120 µM | IC50 [4]: > 120 µM | IC50 [5]: > 120 µM

CCCc1ccc(-c2cccc(-c3noc(Cc4c[nH]c5ccccc45)n3)c2)cc1
IC50 [1]: > 120 µM | IC50 [2]: > 120 µM | IC50 [3]: > 120 µM | IC50 [4]: > 120 µM | IC50 [5]: > 120 µM

Cc1ccccc1-c1cccc(-c2noc(Cc3c[nH]c4ccccc34)n2)n1
IC50 [1]: > 120 µM | IC50 [2]: 26.1 µM | IC50 [3]: > 120 µM | IC50 [4]: > 120 µM | IC50 [5]: > 120 µM

COC(=O)CCCOc1ccc(-c2cccc(-c3noc(Cc4c[nH]c5ccccc45)n3)c2)cc1
IC50 [1]: > 120 µM | IC50 [2]: > 120 µM | IC50 [3]: > 120 µM | IC50 [4]: > 120 µM | IC50 [5]: > 120 µM

CCCCc1ccc(-c2cccc(-c3noc(Cc4c[nH]c5ccccc45)n3)c2)cc1
IC50 [1]: > 120 µM | IC50 [2]: 8.8 µM | IC50 [3]: > 120 µM | IC50 [4]: > 120 µM | IC50 [5]: > 120 µM

CC1(C)CC[C@]2(C(=O)O)CC[C@]3(C)C(=CC[C@@H]4[C@@]5(C)CC[C@H](O)C(C)(C)[C@@H]5CC[C@]43C)[C@@H]2C1 [OLEANOLIC_ACID]
IC50 [1]: > 120 µM | IC50 [3]: > 120 µM
